The values that follow come from the supplement of paper PMC11368000.

The first test relates to 1516 (donor line of iPSC-derived cardiomyocytes). The test is described as follows: POD (EC05) for increase in Ca2+ transient decay-to-rise ratio (QT prolongation) vs vehicle; higher = less potent (higher point of departure). To be noted: exposure time: 90 min. The procedure, abridged:
(§1)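 Points of departure specific to each donor were obtained from hierarchical Bayesian Hill fits to vehicle-normalised beat frequency, decay-to-rise ratio or peak frequency. Thresholds were set at 5% change, or 95% loss in the case of peak frequency. The cells were human iPSC-derived cardiomyocytes from 16 donors, exposed for 90 min at 37 °C to 0.1, 1, 10 and 100 µM (final, 0.5% DMSO), with Ca2+ flux read on a FLIPR Tetra before and after exposure.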
Take `CN(CCO)S(=O)(=O)C(F)(F)C(F)(F)C(F)(F)C(F)(F)C(F)(F)C(F)(F)C(F)(F)C(F)(F)F` [N-Methyl-N-(2-hydroxyethyl)perfluorooctanesulfonamide]: the POD vs vehicle was above 100 µM.

Consider `NC(=O)C(F)(F)C(F)(F)C(F)(F)C(F)(F)C(N)=O` [Octafluoroadipamide], for which the POD vs vehicle is above 100 µM.

On to `O=C(O)C(F)(F)C(F)(F)C(F)(F)OC(F)(F)F` [Perfluoro(4-methoxybutanoic)_acid], for which the POD vs vehicle was above 100 µM.

As for `O=C(O)C(F)(F)C(F)(F)OC(F)(F)F` [Perfluoro-3-methoxypropanoic_acid], the POD vs vehicle is above 100 µM.

Turning to `O=C(O)C(F)(F)C(F)(F)C(F)(F)F` [Perfluorobutanoic_acid], the POD vs vehicle is above 100 µM.

In the case of `O=C(O)C(F)(F)C(F)(F)C(F)(F)C(F)(F)C(F)(F)C(F)(F)C(F)(F)C(F)(F)C(F)(F)F` [Perfluorodecanoic_acid], the POD vs vehicle is above 100 µM.

Regarding `NS(=O)(=O)C(F)(F)C(F)(F)C(F)(F)C(F)(F)C(F)(F)C(F)(F)F` [Perfluorohexanesulfonamide], the POD vs vehicle was above 100 µM.

Consider `O=S(=O)(O)C(F)(F)C(F)(F)C(F)(F)C(F)(F)C(F)(F)C(F)(F)F` [Perfluorohexanesulfonic_acid], for which the POD vs vehicle was above 100 µM.

For the molecule `O=C(O)C(F)(F)C(F)(F)C(F)(F)C(F)(F)C(F)(F)F` [Perfluorohexanoic_acid], the POD vs vehicle was above 100 µM.

For another test, the system named is 1518 (donor line of iPSC-derived cardiomyocytes). The description is as above. The following applies: exposure time: 90 min. A digest of the protocol:
as §1
Take `O=C(O)CCC(F)(F)C(F)(F)C(F)(F)C(F)(F)C(F)(F)C(F)(F)C(F)(F)F` [3-Perfluoroheptylpropanoic_acid]: the POD vs vehicle is above 100 µM.

For the molecule `OCCC(F)(F)C(F)(F)C(F)(F)C(F)(F)C(F)(F)C(F)(F)F` [6:2 Fluorotelomer alcohol], the POD vs vehicle is above 100 µM.

On to `O=S(=O)(O)CCC(F)(F)C(F)(F)C(F)(F)C(F)(F)C(F)(F)C(F)(F)F` [6:2 Fluorotelomer sulfonic acid], for which the POD vs vehicle was above 100 µM.

With `OCCC(F)(F)C(F)(F)C(F)(F)C(F)(F)C(F)(F)C(F)(F)C(F)(F)C(F)(F)F` [8:2 Fluorotelomer alcohol], the POD vs vehicle was above 100 µM.

`O=S(=O)(O)CCC(F)(F)C(F)(F)C(F)(F)C(F)(F)C(F)(F)C(F)(F)C(F)(F)C(F)(F)F` [8:2 Fluorotelomer sulfonic acid]: the POD vs vehicle was above 100 µM.

With `O=C(O)C(F)(F)C(F)(F)C(F)(F)C(F)(F)C(F)(F)C(F)(F)C(F)(F)C(F)(F)Cl` [9-Chloro-perfluorononanoic_acid], the POD vs vehicle was above 100 µM.

With `O=P(O)(O)CCC(F)(F)C(F)(F)C(F)(F)C(F)(F)C(F)(F)C(F)(F)C(F)(F)C(F)(F)F` [((Perfluorooctyl)ethyl)phosphonic_acid], the POD vs vehicle is above 100 µM.

As to `OCC(F)(F)C(F)(F)C(F)(F)C(F)(F)C(F)(F)C(F)F` [Dodecafluoroheptanol], the POD vs vehicle was above 100 µM.

Consider `COC(=O)C(F)(F)C(F)(F)OC(F)(C(F)(F)F)C(F)(F)OC(F)=C(F)F` (stereo not given) [Methyl_perfluoro(3-(1-ethenyloxypropan-2-yloxy)propanoate)], for which the POD vs vehicle was above 100 µM.

In the case of `CN(CCO)S(=O)(=O)C(F)(F)C(F)(F)C(F)(F)C(F)(F)C(F)(F)C(F)(F)C(F)(F)C(F)(F)F` [N-Methyl-N-(2-hydroxyethyl)perfluorooctanesulfonamide], the POD vs vehicle is above 100 µM.

As to `NC(=O)C(F)(F)C(F)(F)C(F)(F)C(F)(F)C(N)=O` [Octafluoroadipamide], the POD vs vehicle is above 100 µM.

Consider `O=C(O)C(F)(F)C(F)(F)C(F)(F)OC(F)(F)F` [Perfluoro(4-methoxybutanoic)_acid], for which the POD vs vehicle was above 100 µM.

In the case of `O=C(O)C(F)(F)C(F)(F)OC(F)(F)F` [Perfluoro-3-methoxypropanoic_acid], the POD vs vehicle was above 100 µM.

As to `O=C(O)C(F)(F)C(F)(F)C(F)(F)F` [Perfluorobutanoic_acid], the POD vs vehicle was above 100 µM.

As for `O=C(O)C(F)(F)C(F)(F)C(F)(F)C(F)(F)C(F)(F)C(F)(F)C(F)(F)C(F)(F)C(F)(F)F` [Perfluorodecanoic_acid], the POD vs vehicle was above 100 µM.

With `NS(=O)(=O)C(F)(F)C(F)(F)C(F)(F)C(F)(F)C(F)(F)C(F)(F)F` [Perfluorohexanesulfonamide], the POD vs vehicle is above 100 µM.

In the case of `O=S(=O)(O)C(F)(F)C(F)(F)C(F)(F)C(F)(F)C(F)(F)C(F)(F)F` [Perfluorohexanesulfonic_acid], the POD vs vehicle is above 100 µM.

On to `O=C(O)C(F)(F)C(F)(F)C(F)(F)C(F)(F)C(F)(F)F` [Perfluorohexanoic_acid], for which the POD vs vehicle is above 100 µM.

The test system of another test is 1531 (donor line of iPSC-derived cardiomyocytes). The test is described as above. The following applies: exposure time: 90 min. A digest of the protocol: as §1
Turning to `O=C(O)CCC(F)(F)C(F)(F)C(F)(F)C(F)(F)C(F)(F)C(F)(F)C(F)(F)F` [3-Perfluoroheptylpropanoic_acid], the POD vs vehicle came out at 25.4 µM.

For the molecule `OCCC(F)(F)C(F)(F)C(F)(F)C(F)(F)C(F)(F)C(F)(F)F` [6:2 Fluorotelomer alcohol], the POD vs vehicle is above 100 µM.

Consider `O=S(=O)(O)CCC(F)(F)C(F)(F)C(F)(F)C(F)(F)C(F)(F)C(F)(F)F` [6:2 Fluorotelomer sulfonic acid], for which the POD vs vehicle was above 100 µM.

As to `OCCC(F)(F)C(F)(F)C(F)(F)C(F)(F)C(F)(F)C(F)(F)C(F)(F)C(F)(F)F` [8:2 Fluorotelomer alcohol], the POD vs vehicle was above 100 µM.

For `O=S(=O)(O)CCC(F)(F)C(F)(F)C(F)(F)C(F)(F)C(F)(F)C(F)(F)C(F)(F)C(F)(F)F` [8:2 Fluorotelomer sulfonic acid], the POD vs vehicle was determined as 47.4 µM.

For `O=C(O)C(F)(F)C(F)(F)C(F)(F)C(F)(F)C(F)(F)C(F)(F)C(F)(F)C(F)(F)Cl` [9-Chloro-perfluorononanoic_acid], the POD vs vehicle was above 100 µM.

On to `O=P(O)(O)CCC(F)(F)C(F)(F)C(F)(F)C(F)(F)C(F)(F)C(F)(F)C(F)(F)C(F)(F)F` [((Perfluorooctyl)ethyl)phosphonic_acid], for which the POD vs vehicle is above 100 µM.

For the molecule `OCC(F)(F)C(F)(F)C(F)(F)C(F)(F)C(F)(F)C(F)F` [Dodecafluoroheptanol], the POD vs vehicle is above 100 µM.

Consider `COC(=O)C(F)(F)C(F)(F)OC(F)(C(F)(F)F)C(F)(F)OC(F)=C(F)F` (stereo not given) [Methyl_perfluoro(3-(1-ethenyloxypropan-2-yloxy)propanoate)], for which the POD vs vehicle was determined as 24.9 µM.

Turning to `CN(CCO)S(=O)(=O)C(F)(F)C(F)(F)C(F)(F)C(F)(F)C(F)(F)C(F)(F)C(F)(F)C(F)(F)F` [N-Methyl-N-(2-hydroxyethyl)perfluorooctanesulfonamide], the POD vs vehicle is above 100 µM.

As to `NC(=O)C(F)(F)C(F)(F)C(F)(F)C(F)(F)C(N)=O` [Octafluoroadipamide], the POD vs vehicle was above 100 µM.

Take `O=C(O)C(F)(F)C(F)(F)C(F)(F)OC(F)(F)F` [Perfluoro(4-methoxybutanoic)_acid]: the POD vs vehicle is above 100 µM.

On to `O=C(O)C(F)(F)C(F)(F)OC(F)(F)F` [Perfluoro-3-methoxypropanoic_acid], for which the POD vs vehicle was above 100 µM.

On to `O=C(O)C(F)(F)C(F)(F)C(F)(F)F` [Perfluorobutanoic_acid], for which the POD vs vehicle was above 100 µM.

Turning to `O=C(O)C(F)(F)C(F)(F)C(F)(F)C(F)(F)C(F)(F)C(F)(F)C(F)(F)C(F)(F)C(F)(F)F` [Perfluorodecanoic_acid], the POD vs vehicle was above 100 µM.

As for `NS(=O)(=O)C(F)(F)C(F)(F)C(F)(F)C(F)(F)C(F)(F)C(F)(F)F` [Perfluorohexanesulfonamide], the POD vs vehicle was above 100 µM.

For `O=S(=O)(O)C(F)(F)C(F)(F)C(F)(F)C(F)(F)C(F)(F)C(F)(F)F` [Perfluorohexanesulfonic_acid], the POD vs vehicle was above 100 µM.

For the molecule `O=C(O)C(F)(F)C(F)(F)C(F)(F)C(F)(F)C(F)(F)F` [Perfluorohexanoic_acid], the POD vs vehicle was above 100 µM.
